According to the kinase profiling compilation of Christmann-Franck et al. (2016):
“And” between values parts separate entries of the source, which are not always exact repeats. Equal entries are not always repeated.

Assays:
Assay in all cases: radiometric filter-binding kinase assay, Kinase HotSpot
Settings in all cases: compound 0.5 µM; ATP 10 µM
[1] = molecular target: ACVR1B (human) (UniProt P36896)
[2] = molecular target: ADRBK1 (human) (UniProt P25098)
[3] = molecular target: AXL (human) (UniProt P30530)
[4] = molecular target: BMX (human) (UniProt P51813)
[5] = molecular target: CAMK4 (human) (UniProt Q16566)
[6] = molecular target: CHEK2 (human) (UniProt O96017)
[7] = molecular target: CSK (human) (UniProt P41240)
[8] = molecular target: DAPK3 (human) (UniProt O43293)
[9] = molecular target: DDR2 (human) (UniProt Q16832)
[10] = molecular target: DYRK2 (human) (UniProt Q92630)
[11] = molecular target: DYRK4 (human) (UniProt Q9NR20)
[12] = molecular target: EPHA1 (human) (UniProt P21709)
[13] = molecular target: EPHA8 (human) (UniProt P29322)
[14] = molecular target: GRK4 (human) (UniProt P32298)
[15] = molecular target: GRK7 (human) (UniProt Q8WTQ7)
[16] = molecular target: GSG2 (human) (UniProt Q8TF76)
[17] = molecular target: GSK3B (human) (UniProt P49841)
[18] = molecular target: ITK (human) (UniProt Q08881)
[19] = molecular target: MAP2K2 (human) (UniProt P36507)
[20] = molecular target: MAP3K11 (human) (UniProt Q16584)
[21] = molecular target: MAP3K5 (human) (UniProt Q99683)
[22] = molecular target: MAP3K9 (human) (UniProt P80192)
MAP3K9 (human), sequence (P80192 whole entry, looked up): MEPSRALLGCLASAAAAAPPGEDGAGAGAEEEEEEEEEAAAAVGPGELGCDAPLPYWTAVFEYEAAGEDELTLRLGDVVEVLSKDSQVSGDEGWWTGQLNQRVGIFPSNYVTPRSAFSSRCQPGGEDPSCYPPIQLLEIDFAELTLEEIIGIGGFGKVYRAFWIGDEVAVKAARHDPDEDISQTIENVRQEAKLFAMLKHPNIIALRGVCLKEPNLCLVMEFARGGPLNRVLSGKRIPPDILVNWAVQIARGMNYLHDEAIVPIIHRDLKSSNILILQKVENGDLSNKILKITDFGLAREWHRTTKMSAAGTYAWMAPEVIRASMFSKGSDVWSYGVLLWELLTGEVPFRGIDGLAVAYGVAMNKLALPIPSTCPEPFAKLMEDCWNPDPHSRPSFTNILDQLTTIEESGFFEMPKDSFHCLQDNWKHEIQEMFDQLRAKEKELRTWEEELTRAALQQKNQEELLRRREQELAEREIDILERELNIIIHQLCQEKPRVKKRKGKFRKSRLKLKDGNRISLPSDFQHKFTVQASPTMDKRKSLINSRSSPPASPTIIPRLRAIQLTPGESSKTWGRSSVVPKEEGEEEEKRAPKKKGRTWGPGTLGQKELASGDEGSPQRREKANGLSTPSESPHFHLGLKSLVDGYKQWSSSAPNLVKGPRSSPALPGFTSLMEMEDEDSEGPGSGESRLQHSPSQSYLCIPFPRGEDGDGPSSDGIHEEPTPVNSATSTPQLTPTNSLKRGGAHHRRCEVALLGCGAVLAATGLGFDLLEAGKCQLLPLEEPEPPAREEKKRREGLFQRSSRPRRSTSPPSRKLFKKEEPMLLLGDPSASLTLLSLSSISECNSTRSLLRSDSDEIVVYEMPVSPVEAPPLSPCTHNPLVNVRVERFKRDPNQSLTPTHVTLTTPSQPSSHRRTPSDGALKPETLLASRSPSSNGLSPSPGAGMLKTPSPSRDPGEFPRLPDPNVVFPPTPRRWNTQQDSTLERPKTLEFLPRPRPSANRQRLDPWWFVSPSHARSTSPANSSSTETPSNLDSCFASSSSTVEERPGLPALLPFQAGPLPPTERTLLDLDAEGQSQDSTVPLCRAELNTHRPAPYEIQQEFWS

[23] = molecular target: MAPK1 (human) (UniProt P28482)
[24] = molecular target: MELK (human) (UniProt Q14680)
[25] = molecular target: MERTK (human) (UniProt Q12866)
[26] = molecular target: NEK7 (human) (UniProt Q8TDX7)
[27] = molecular target: NTRK1 (human) (UniProt P04629)
[28] = molecular target: PHKG1 (human) (UniProt Q16816)
[29] = molecular target: PLK1 (human) (UniProt P53350)
[30] = molecular target: PRKCZ (human) (UniProt Q05513)
[31] = molecular target: PRKD3 (human) (UniProt O94806)
[32] = molecular target: PRKG1 (human) (UniProt Q13976)
[33] = molecular target: PTK6 (human) (UniProt Q13882)
[34] = molecular target: ROS1 (human) (UniProt P08922)
[35] = molecular target: STK33 (human) (UniProt Q9BYT3)
[36] = molecular target: STK39 (human) (UniProt Q9UEW8)
[37] = molecular target: TAOK2 (human) (UniProt Q9UL54)
TAOK2 (human), sequence (Q9UL54 whole entry, looked up): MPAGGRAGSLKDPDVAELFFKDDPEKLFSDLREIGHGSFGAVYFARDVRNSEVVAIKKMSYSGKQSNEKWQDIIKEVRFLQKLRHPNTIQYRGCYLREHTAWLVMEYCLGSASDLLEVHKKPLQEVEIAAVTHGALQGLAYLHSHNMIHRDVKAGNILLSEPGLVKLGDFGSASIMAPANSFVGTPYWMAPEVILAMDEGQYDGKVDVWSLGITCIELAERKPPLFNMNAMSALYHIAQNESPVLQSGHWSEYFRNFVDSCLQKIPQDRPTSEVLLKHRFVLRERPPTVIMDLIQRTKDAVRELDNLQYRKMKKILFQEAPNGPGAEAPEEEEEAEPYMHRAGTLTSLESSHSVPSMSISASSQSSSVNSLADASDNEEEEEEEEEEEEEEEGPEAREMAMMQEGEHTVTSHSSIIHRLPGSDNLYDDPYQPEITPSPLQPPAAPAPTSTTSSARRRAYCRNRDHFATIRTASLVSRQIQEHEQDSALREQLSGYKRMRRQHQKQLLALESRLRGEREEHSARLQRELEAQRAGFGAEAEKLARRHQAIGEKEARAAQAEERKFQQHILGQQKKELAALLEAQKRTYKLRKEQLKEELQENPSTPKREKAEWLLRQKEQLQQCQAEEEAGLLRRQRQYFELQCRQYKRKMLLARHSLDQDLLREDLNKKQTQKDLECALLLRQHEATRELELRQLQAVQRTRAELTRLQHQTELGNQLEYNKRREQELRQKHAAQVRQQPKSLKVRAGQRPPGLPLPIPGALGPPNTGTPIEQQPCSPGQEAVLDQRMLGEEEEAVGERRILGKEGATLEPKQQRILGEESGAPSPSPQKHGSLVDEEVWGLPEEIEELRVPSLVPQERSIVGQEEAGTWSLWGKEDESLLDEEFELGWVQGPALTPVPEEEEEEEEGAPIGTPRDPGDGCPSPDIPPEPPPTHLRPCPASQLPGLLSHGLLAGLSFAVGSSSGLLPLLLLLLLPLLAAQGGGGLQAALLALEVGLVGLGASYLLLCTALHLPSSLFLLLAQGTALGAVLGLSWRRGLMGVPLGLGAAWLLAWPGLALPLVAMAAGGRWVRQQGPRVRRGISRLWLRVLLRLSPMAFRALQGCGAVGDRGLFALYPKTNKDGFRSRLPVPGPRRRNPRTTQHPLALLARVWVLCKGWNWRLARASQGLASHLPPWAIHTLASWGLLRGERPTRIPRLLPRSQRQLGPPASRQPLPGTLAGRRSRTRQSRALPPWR

[38] = molecular target: TEK (human) (UniProt Q02763)
[39] = molecular target: TGFBR2 (human) (UniProt P37173)
[40] = molecular target: ULK1 (human) (UniProt O75385)
ULK1 (human), sequence (O75385 whole entry, looked up): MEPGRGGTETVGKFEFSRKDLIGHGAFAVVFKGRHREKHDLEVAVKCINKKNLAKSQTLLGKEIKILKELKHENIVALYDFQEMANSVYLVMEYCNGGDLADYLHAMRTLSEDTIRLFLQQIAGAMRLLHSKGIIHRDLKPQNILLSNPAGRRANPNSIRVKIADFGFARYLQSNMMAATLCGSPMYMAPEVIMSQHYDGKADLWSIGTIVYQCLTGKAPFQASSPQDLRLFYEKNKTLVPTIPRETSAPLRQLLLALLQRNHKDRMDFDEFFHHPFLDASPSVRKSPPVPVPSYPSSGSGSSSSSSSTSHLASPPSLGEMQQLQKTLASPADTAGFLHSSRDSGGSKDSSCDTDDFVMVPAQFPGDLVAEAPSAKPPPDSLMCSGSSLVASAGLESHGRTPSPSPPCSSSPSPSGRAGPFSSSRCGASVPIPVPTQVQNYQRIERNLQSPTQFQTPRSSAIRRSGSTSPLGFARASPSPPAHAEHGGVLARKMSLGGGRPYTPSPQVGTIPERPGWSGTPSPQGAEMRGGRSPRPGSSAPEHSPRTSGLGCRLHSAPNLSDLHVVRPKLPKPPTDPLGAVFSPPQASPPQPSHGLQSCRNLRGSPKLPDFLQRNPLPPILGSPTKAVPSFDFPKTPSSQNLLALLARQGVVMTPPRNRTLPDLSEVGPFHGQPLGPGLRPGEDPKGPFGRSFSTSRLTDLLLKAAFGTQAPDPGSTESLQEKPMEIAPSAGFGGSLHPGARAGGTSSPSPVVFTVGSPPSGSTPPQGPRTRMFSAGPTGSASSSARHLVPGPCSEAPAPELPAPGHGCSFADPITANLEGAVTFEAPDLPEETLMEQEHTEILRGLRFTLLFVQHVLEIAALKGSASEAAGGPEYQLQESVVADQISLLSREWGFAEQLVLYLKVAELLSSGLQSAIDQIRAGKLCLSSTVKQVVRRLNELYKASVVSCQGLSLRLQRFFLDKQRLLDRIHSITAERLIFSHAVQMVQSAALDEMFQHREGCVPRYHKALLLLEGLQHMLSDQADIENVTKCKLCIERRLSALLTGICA

[41] = molecular target: ULK2 (human) (UniProt Q8IYT8)
ULK2 (human), sequence (Q8IYT8 whole entry, looked up): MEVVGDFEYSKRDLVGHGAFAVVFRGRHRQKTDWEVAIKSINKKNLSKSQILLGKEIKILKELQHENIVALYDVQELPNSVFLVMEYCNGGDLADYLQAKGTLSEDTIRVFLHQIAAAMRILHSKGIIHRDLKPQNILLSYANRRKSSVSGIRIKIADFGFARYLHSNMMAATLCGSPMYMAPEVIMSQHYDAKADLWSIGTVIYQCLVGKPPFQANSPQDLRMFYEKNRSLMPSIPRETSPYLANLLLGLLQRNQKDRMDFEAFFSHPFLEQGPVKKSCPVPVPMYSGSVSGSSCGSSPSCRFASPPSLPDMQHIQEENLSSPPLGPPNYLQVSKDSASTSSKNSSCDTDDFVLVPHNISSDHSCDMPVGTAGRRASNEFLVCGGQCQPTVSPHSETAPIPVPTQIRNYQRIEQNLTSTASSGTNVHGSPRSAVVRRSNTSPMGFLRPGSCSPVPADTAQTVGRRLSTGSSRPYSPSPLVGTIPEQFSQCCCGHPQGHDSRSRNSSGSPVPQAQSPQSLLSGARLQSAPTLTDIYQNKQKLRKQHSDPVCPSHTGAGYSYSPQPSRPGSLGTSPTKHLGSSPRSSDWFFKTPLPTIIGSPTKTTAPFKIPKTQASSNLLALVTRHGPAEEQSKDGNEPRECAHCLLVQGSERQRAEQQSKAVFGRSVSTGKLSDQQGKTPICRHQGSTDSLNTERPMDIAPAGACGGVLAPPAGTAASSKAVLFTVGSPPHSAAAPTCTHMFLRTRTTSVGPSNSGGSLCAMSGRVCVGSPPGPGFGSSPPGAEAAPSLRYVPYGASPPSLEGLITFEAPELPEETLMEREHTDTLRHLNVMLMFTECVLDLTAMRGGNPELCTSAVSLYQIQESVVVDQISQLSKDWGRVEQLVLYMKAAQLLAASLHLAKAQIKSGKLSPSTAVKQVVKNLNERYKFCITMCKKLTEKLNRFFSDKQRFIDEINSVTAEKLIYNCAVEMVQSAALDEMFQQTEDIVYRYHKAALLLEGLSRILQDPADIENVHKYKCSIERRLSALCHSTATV

[42] = molecular target: CDK1 CCNA2 (human) (UniProt P06493+P20248)

ADRBK1 (human), sequence (P25098 whole entry, looked up): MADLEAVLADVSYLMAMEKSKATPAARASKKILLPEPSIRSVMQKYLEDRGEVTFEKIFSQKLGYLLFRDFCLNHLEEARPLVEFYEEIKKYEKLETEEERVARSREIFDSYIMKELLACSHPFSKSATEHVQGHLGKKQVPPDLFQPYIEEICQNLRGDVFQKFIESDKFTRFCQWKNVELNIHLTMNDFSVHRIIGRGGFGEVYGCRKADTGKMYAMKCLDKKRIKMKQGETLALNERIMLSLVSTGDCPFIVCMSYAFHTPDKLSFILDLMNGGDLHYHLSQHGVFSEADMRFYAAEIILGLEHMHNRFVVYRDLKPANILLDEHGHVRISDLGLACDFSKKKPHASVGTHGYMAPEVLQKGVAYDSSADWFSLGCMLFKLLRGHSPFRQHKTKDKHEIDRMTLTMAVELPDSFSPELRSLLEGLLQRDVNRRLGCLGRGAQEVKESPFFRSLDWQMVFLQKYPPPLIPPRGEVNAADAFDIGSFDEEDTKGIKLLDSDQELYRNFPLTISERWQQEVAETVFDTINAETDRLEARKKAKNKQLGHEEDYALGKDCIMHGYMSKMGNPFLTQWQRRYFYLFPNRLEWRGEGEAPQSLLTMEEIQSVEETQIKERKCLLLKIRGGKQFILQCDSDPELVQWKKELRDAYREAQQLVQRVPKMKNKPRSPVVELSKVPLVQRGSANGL

Compound `Nc1ncnc2c1cnn2-c1ccccc1` has a residual activity [1] of 99.4%, a residual activity [2] of 99.4% and a residual activity [3] of 110%. For the same compound, the residual activity [4] was 96.8%, the residual activity [5] was 104% and the residual activity [6] was 95.5%. The residual activity [7] was 86.8%, the residual activity [8] was 103% and the residual activity [9] was 92.3%. The residual activity [10] was 95.6%, the residual activity [11] was 98.4% and the residual activity [12] was 92.4%. For the same compound, the residual activity [13] was 90.5%, the residual activity [14] was 106% and the residual activity [15] was 100%. For the same compound, the residual activity [16] was 94.8%, the residual activity [17] was 91.6% and the residual activity [18] was 92.7%. The residual activity [19] was 96.9%, the residual activity [20] was 96% and the residual activity [21] was 100%. For the same compound, the residual activity [22] was 106%, the residual activity [23] was 85.4% and the residual activity [24] was 92.6%. For the same compound, the residual activity [25] was 94.3%, the residual activity [26] was 106% and the residual activity [27] was 96.1%. It also gave a residual activity [28] of 94.2%, a residual activity [29] of 98.9% and a residual activity [30] of 96.3%. For the same compound, the residual activity [31] was 87.3%, the residual activity [32] was 107% and 91.3% and the residual activity [33] was 92%. For the same compound, the residual activity [34] was 94.2%, the residual activity [35] was 96.1% and the residual activity [36] was 107%. The residual activity [37] was 93%, the residual activity [38] was 92.2% and the residual activity [39] was 105%. For the same compound, the residual activity [40] was 99.5% and the residual activity [41] was 95.1%.

Work on `O=S(=O)(NCCNC/C=C/c1ccc(Br)cc1)c1cccc2cnccc12` yielded a residual activity [2] of 91.3%, a residual activity [3] of 112% and a residual activity [4] of 102%. The residual activity [5] was 95.2%, the residual activity [42] was 95.3% and the residual activity [6] was 82.8%. For the same compound, the residual activity [7] was 95.6%, the residual activity [8] was 97.4% and the residual activity [9] was 93.8%. For the same compound, the residual activity [10] was 95.2%, the residual activity [11] was 96.4% and the residual activity [12] was 83.7%. For the same compound, the residual activity [13] was 118%, the residual activity [14] was 95.8% and the residual activity [16] was 55.1%. It also gave a residual activity [17] of 83.5%, a residual activity [18] of 86.8% and a residual activity [19] of 103%. The residual activity [20] was 95.6%, the residual activity [21] was 93.2% and the residual activity [22] was 99.6%. For the same compound, the residual activity [23] was 108%, the residual activity [24] was 75.1% and the residual activity [25] was 79.8%. For the same compound, the residual activity [26] was 96.9%, the residual activity [27] was 84.9% and the residual activity [28] was 91.6%. The residual activity [29] was 98.7%, the residual activity [30] was 79.8% and the residual activity [31] was 79.2%. For the same compound, the residual activity [32] was 26.3% and 41.1%, the residual activity [33] was 94.2% and the residual activity [34] was 99.6%. The residual activity [35] was 79.5%, the residual activity [36] was 103% and the residual activity [37] was 90.7%. For the same compound, the residual activity [38] was 99.8%, the residual activity [39] was 92.1% and the residual activity [40] was 102%. It also gave a residual activity [41] of 98.9%.

With `COc1cc2c(Nc3ccc(Br)cc3F)ncnc2cc1OCC1CCN(C)CC1` the residual activity [1] was 107%, the residual activity [2] was 92.2% and the residual activity [3] was 55%. For the same compound, the residual activity [4] was 88.4%, the residual activity [5] was 101% and the residual activity [42] was 100%. The residual activity [6] was 62.1%, the residual activity [7] was 54.4% and the residual activity [8] was 90.3%. For the same compound, the residual activity [9] was 68%, the residual activity [10] was 97.2% and the residual activity [11] was 102%. It also gave a residual activity [12] of 31.7%, a residual activity [13] of 33.9% and a residual activity [14] of 102%. For the same compound, the residual activity [15] was 96.4%, the residual activity [16] was 92.6% and the residual activity [17] was 101%. For the same compound, the residual activity [18] was 101%, the residual activity [20] was 100% and the residual activity [21] was 102%. For the same compound, the residual activity [22] was 96.1%, the residual activity [23] was 99.1% and the residual activity [24] was 94.4%. It also gave a residual activity [25] of 47.9%, a residual activity [26] of 99% and a residual activity [27] of 104%. The residual activity [28] was 55.5%, the residual activity [29] was 98.5% and the residual activity [30] was 97.8%. The residual activity [31] was 91.7%, the residual activity [32] was 96.6% and 99.8% and the residual activity [33] was 7.28%. For the same compound, the residual activity [34] was 76.5%, the residual activity [35] was 85.1% and the residual activity [36] was 97.4%. The residual activity [37] was 104%, the residual activity [38] was 50.8% and the residual activity [39] was 102%. It also gave a residual activity [40] of 95.7% and a residual activity [41] of 108%.
